In patent US9675629B2, “PH-responsive nanoparticle using mussel adhesive protein for drug delivery and method for preparing the same” (POSTECH ACADEMY-INDUSTRY FOUNDATION, priority 2015, dated 2017):

Tested on: HeLa cells
Test: Cellular uptake evaluation, cell imaging and flow cytometer analysis
Format: cell-based
Conditions: DOX 2 μg/mL
Procedure: For cellular uptake evaluation, cell imaging and flow cytometer analysis were performed. For cell imaging, free DOX and DOX-loaded mfp-1 nanoparticles (DOX concentration 2 μg/mL) were treated for 1 and 3 hours into each cell culture medium after initial cell seeding on 24-well culture plate. Before observation, cells were stained with 5 μg/mL of Hoechst 33258 (Sigma) solution for 30 minutes to clearly discriminate cell nucleus from cytosol. Cell nucleus and location of DOX were observed using fluorescence microscopy (Olympus). Cells treated by same condition with imaging procedures were collected for flow cytometry analysis after detachment by 0.25% trypsin-EDTA treatment. Fluorescence intensity of DOX in the collected cells resuspended in 1 mL PBS was examined by fluorescence scanning with 1×10^4 cells under PerCP-Cy5.5 filter (488 nm excitation and 630 nm emission). Calibration was performed using non-treated cells.

SMILES: COc1cccc2c1C(=O)c1c(O)c3c(c(O)c1C2=O)C[C@@](O)(C(=O)CO)C[C@@H]3O[C@H]1C[C@H](N)[C@H](O)[C@H](C)O1 [free DOX, doxorubicin]
- fluorescence intensity of DOX in cells, flow cytometry (1 and 3 hours): higher than DOX-loaded mfp-1 nanoparticles-treated cells
- location of DOX in cells, fluorescence microscopy (treated for 1 hour): spread over the whole cell area
